In publication PMC11637191, “The pH-dependence of efflux ratios determined with bidirectional transport assays across cellular monolayers” (International Journal of Pharmaceutics: X, 2024):
Where two headings read alike, the source gives them in different places.

Key:
[1] = system: MDCK-MDR1 cells; conditions: pH 7.4 iso-method, cited from earlier work; for Papp, inhibitor: with inhibitor; for Papp, B⟶A: without inhibitor
[2] = system: MDCK-MDR1 cells; assay: Comparison of Papp,B-A with and without inhibitor in MDCK-MDR1 cells (own and literature data); conditions: calculated from literature Papp,B⟶A and Papp with inhibitor; pH 7.4 iso-method
[3] = basic, cited from earlier work
[4] = Calculation of neutral fraction (fn)
[5] = system: P-gp (MDR1); assay: in vitro; conditions: dog
[6] = in vitro; conditions: dog
[7] = system: MDCK-II-MDR1 cells
[8] = Measurement of paracellular transport (Ppara) in MDCK-MDR1 cells with and without P-gp inhibitors; type: in vitro ADME, canine; conditions: dog, + 2 µM elacridar
Description: In initial fits, we used experimentally obtained values for Ppara , determined by measuring the Papp of the relevant compound at a pH value where paracellular transport was expected to dominate. Since the compounds in this study are P-gp substrates, elacridar was also used to inhibit P-gp. Under these conditions, the measured Papp is expected to be a measure of Ppara . […]
X Measurement of paracellular transport […]
assess its relative contribution to overall flux, it is necessary to quantify paracellular transport in some way. An approximation of paracellular transport can be mathematically calculated as desc ribed in […]
and cell type can influence and complicate the predictions, leading to uncertainties. H owever, it can also be experimentally measured provided that it can be assured that the P app would be dominated by the contribution of P para . […]
compounds. In order to ensure paracellular dominance, 2 µM elacridar was used to inhibit potential P-gp facilitated efflux, and the transport buffer was set to a pH that would severely restrict the neutral […]
Table S13: P app values and measured logP para for basic and acidic marker compounds. P app values are the mean of three timepoints per replicate, for a total of three replicates (n = 3) ± standard […]
Compound pH Papp, A⟶B logP para Recovery fn
In light of the uncertainties in predicting P para , it was presumed more apt to measure P para for each compound individually in parallel with the pH dependence experiments. As described in Section 4.3 of the main text, experiments were initially performed for each tested compound with inhibitor and appropriate pH values (similar to those performed for Table S12) in an attempt to ensure the dominance of paracellular transport. These values could then be used as a direct measure for P para for each compound that could be fed to the model for its individual fit. […]
affecting P para and/or the measurement of it, we measured the P app of more commonly-used markers for paracellular transport with and without inhibitor. The transport of these rather hydrophilic compounds is known to be dominated by the paracellular route. Furthermore, for our MDCK- MDR1 […]
efflux is not expected to play a role. As such, the addition of inhibitor in this case is purely to evaluate if the P app changes when it is present.

[9] = ref Troutman and Thakker (2003)

For `COC(=O)c1ccccc1-c1c2ccc(=N)cc-2oc2cc(N)ccc12` [Rhodamine 123], the “Papp, inhibitor” value ([1]; ref Tang et al. (2004)) is given as 1.173 ×10⁻⁶ cm/s, the “Papp, inhibitor” value [1, 9] is given as 1.16 ×10⁻⁶ cm/s and the “Papp, inhibitor” value ([1]; ref Wang et al. (2005)) is given as 2.2 ×10⁻⁶ cm/s. The “Papp, B⟶A” value ([1]; ref Tang et al. (2004)) was 10.17 ×10⁻⁶ cm/s, the “Papp, B⟶A” value [1, 9] was 15.3 ×10⁻⁶ cm/s and the “Papp, B⟶A” value ([1]; ref Wang et al. (2005)) was 7.63 ×10⁻⁶ cm/s.
For `CNC(=C[N+](=O)[O-])NCCSCc1ccc(CN(C)C)o1` [Ranitidine], the Factor difference [2] is given as 3, the “Papp, inhibitor” value [1, 9] is given as 1.25 ×10⁻⁶ cm/s and the “Papp, B⟶A” value [1, 9] is given as 3.29 ×10⁻⁶ cm/s.
In the case of `Cc1cn([C@H]2C[C@H](N=[N+]=[N-])[C@@H](CO)O2)c(=O)[nH]c1=O` [Zidovudine], the Factor difference [2] is given as 3, the “Papp, inhibitor” value ([1]; ref De Souza et al. (2009)) is given as 3.26 ×10⁻⁶ cm/s and the “Papp, B⟶A” value ([1]; ref De Souza et al. (2009)) is given as 9.98 ×10⁻⁶ cm/s.
In the case of `CN1CCC[C@@H]1CCO[C@](C)(c1ccccc1)c1ccc(Cl)cc1` [Clemastine], the Factor difference [2] is given as 3 and the “Papp, B⟶A” value ([1]; ref Obradovic et al. (2007)) is given as 156.4 ×10⁻⁶ cm/s.
For `CC(C)(C)NCC(O)COc1ccc(NC(=O)NC2CCCCC2)cc1` (centres unmarked) [Talinolol], the pKa ([3]; no reference given) is listed as 9.4 and the fn ([4]; neutral fraction at pH 8) is listed as 5%.
In the case of `COc1cccc2c1C(=O)c1c(O)c3c(c(O)c1C2=O)C[C@@](O)(C(=O)CO)C[C@@H]3O[C@H]1C[C@H](N)[C@H](O)[C@H](C)O1` [Doxorubicin], the pKa ([3]; ref Advanced Chemistry Development, 2020) is given as 9.56, the Papp ([5]; MDCK-MDR1, pH 5) is given as 0.77 ± 0.26 ×10⁻⁶ cm/s and the Papp A→B ([5]; MDCK-MDR1, pH 5) is given as 0.457 ×10⁻⁶ cm/s. It also gave a Papp B→A ([5]; MDCK-MDR1, pH 5) of 0.46 ± 0.25 ×10⁻⁶ cm/s, a Papp ([5]; MDCK-MDR1, pH 6) of 0.16 ± 0.03 ×10⁻⁶ cm/s and a Papp B→A ([5]; MDCK-MDR1, pH 6) of 0.23 ± 0.08 ×10⁻⁶ cm/s. For the same compound, the Papp ([5]; MDCK-MDR1, pH 7) was 0.13 ± 0.03 ×10⁻⁶ cm/s, the Papp B→A ([5]; MDCK-MDR1, pH 7) was 0.78 ± 0.36 ×10⁻⁶ cm/s and the Papp ([5]; MDCK-MDR1, pH 8) was 0.17 ± 0.05 ×10⁻⁶ cm/s. The Papp B→A ([5]; MDCK-MDR1, pH 8) was 4.4 ± 0.29 ×10⁻⁶ cm/s, the recovery ([6]; MDCK-MDR1, pH 5) was 94 to 100% and the recovery ([6]; MDCK-MDR1, pH 6) was 90 to 96%. The recovery ([6]; MDCK-MDR1, pH 7) was 88 to 93%, the recovery ([6]; MDCK-MDR1, pH 8) was 64 to 71% and the “logPapp, B⟶A” value ([7]; pH 6, iso-pH method) was -6.64 P in cm/s. The “logPapp, B⟶A” value ([7]; pH 7, iso-pH method) was -6.11 P in cm/s, the “logPapp, B⟶A” value ([7]; pH 8, iso-pH method) was -5.36 P in cm/s and the fn ([4]; neutral fraction at pH 5) was 0.0%. It also gave a recovery ([8]; MDCK-MDR1, pH 5, with elacridar 2 µM, pH 5, n = 3 (Table S13)) of 130% and a Papp ([8]; MDCK-MDR1, with elacridar 2 µM, pH 5, three replicates (n = 3) (Table S13)) of 0.4 ± 0.1 ×10⁻⁶ cm/s.
For `Nc1ccn([C@@H]2CS[C@H](CO)O2)c(=O)n1` [Lamiduvine], the Factor difference [2] is listed as 2, the “Papp, inhibitor” value ([1]; ref De Souza et al. (2009)) is listed as 0.11 ×10⁻⁶ cm/s and the “Papp, B⟶A” value ([1]; ref De Souza et al. (2009)) is listed as 0.18 ×10⁻⁶ cm/s.
In the case of `CCOC(=O)CN[C@@H](C(=O)N1CC[C@H]1C(=O)NCc1ccc(/C(N)=N\O)cc1)C1CCCCC1` [Ximelagatran], the Factor difference [2] is listed as 6, the “Papp, inhibitor” value ([1]; ref Eriksson et al. (2006)) is listed as 7 ×10⁻⁶ cm/s and the “Papp, B⟶A” value ([1]; ref Eriksson et al. (2006)) is listed as 39 ×10⁻⁶ cm/s.
For `CC(C)NCC(O)c1ccc(NS(C)(=O)=O)cc1` (centres unmarked) [Sotolol], the Factor difference [2] is given as 5, the “Papp, inhibitor” value ([1]; ref Liu et al. (2012)) is given as 0.2 ×10⁻⁶ cm/s and the “Papp, B⟶A” value ([1]; ref Liu et al. (2012)) is given as 1.05 ×10⁻⁶ cm/s.
In the case of `CC(C)c1nc(CN(C)C(=O)N[C@H](C(=O)N[C@@H](Cc2ccccc2)C[C@H](O)[C@H](Cc2ccccc2)NC(=O)OCc2cncs2)C(C)C)cs1` [Ritonavir], the Factor difference [2] is given as 6 and the “Papp, B⟶A” value [1, 9] is given as 23.6 ×10⁻⁶ cm/s.
For `CN/C(=N/CCSCc1nc[nH]c1C)NC#N` [Cimetidine], the Factor difference [2] is given as 4, the “Papp, inhibitor” value ([1]; ref Doan et al. (2002)) is given as 0.515 ×10⁻⁶ cm/s and the “Papp, B⟶A” value ([1]; ref Doan et al. (2002)) is given as 1.89 ×10⁻⁶ cm/s.
